# In US20210338576A1, “CANCER TREATMENT” (NOXOPHARM LIMITED, priority 2016, published 2021):
# Tests used:
# late-stage cancers = details: patients with late-stage cancers (Pant et al, 2014); cited from earlier work
# [1] = intravenously administered, cyclodextrin carrier (Howes et al, 2011); cited from earlier work
# [2] = tested on: wide range of cancer cell types; details: fold more potent than genistein; cited from earlier work
# [3] = Brown et al, 2008; cited from earlier work
# primary prostate cancer [4] = assay: Rectal idronoxil in olive oil (high oleic acid) base in a prostate cancer patient, PSA follow-up; type: in vivo, human
# Experimental: Patient receiving chemical castration therapy presenting with undetectable testosterone and receiving Zolodex for primary prostate cancer (PSA=6.0). Patient received 400 mg idronoxil daily in olive oil base rectally for 3 weeks.
# [5] = tested on: late-stage ovarian cancer; details: Phase 3, late-stage ovarian cancer, 142 women recruited (Fotopoulou et al. 2014); cited from earlier work
# primary prostate cancer [6] = assay: Cytotoxic monotherapy with idronoxil suppository in theobroma oil base in prostate cancer patients, PSA follow-up; type: in vivo, human
# Experimental: Patient receiving chemical castration therapy presenting with undetectable testosterone and receiving Zolodex for primary prostate cancer has a PSA doubling time of 6 weeks (PSA=9.6). Patient received suppository comprising 400 mg idronoxil in theobroma oil suppository base daily for 4 weeks. […] Suppository treatment was stopped for a period of 2 weeks and then continued for 2 weeks.
# Patient receiving chemical castration therapy having urinary obstruction and pelvic discomfort receiving 400 mg idronoxil suppository formulation for primary prostate cancer (PSA=19). Patient received suppository comprising 800 mg idronoxil in theobroma oil suppository based daily in 2 week courses for 15 months. The suppository formulation slowed tumour growth to a doubling time of 6 months (PSA=67 at completion of 15 month therapy).
# primary prostate cancer [7] = assay: Oral administration of idronoxil to a prostate cancer patient, PSA follow-up; type: in vivo, human; set-up: PSA at completion of 2 week period: unit not given here
# Experimental: Patient receiving chemical castration therapy presenting with undetectable testosterone and receiving Zolodex for primary prostate cancer (PSA=3.4). Patient received 400 mg idronoxil daily by oral administration, increasing to 800 mg daily for 2 weeks. PSA at completion of 2 week period=6.7 indicating doubling time of 1 month.
# [8] = tested on: colo-rectal cancer cell lines (eg. HT-29, CaCo-2); details: HT-29, CaCo-2 (Alvero et al, 2008); cited from earlier work
# [9] = 400 mg theobroma oil suppository, after stop for 2 weeks, then continued for 2 weeks
# [10] = suppository 800 mg in theobroma oil base daily in 2 week courses for 15 months, PSA at start 19
Structure (SMILES),clinical benefit (late-stage cancers),conjugation [1],potency as an anti-cancer agent compared to genistein [2],susceptibility to Phase 1 metabolic processes [3],tumour growth during treatment (primary prostate cancer [4]; 400 mg daily in olive oil base rectally),"PSA at completion of 2 week period (primary prostate cancer [4]; 400 mg daily in olive oil base rectally for 3 weeks, PSA at start 6.0)",clinical benefit [5],PSA score (primary prostate cancer [6]; [9]),effect on tumour growth (primary prostate cancer [6]; [9]),effect on tumour growth (primary prostate cancer [6]; suppository 400 mg in theobroma oil base daily for 4 weeks),"PSA score (primary prostate cancer [6]; suppository 400 mg in theobroma oil base daily for 4 weeks, PSA at start 9.6, doubling time 6 weeks)",PSA at completion of 15 month therapy (primary prostate cancer [6]; [10]),tumour doubling time (primary prostate cancer [6]; [10]) [months],effect on tumour doubling time (primary prostate cancer [7]; oral administration),"PSA doubling time (primary prostate cancer [7]; oral, 400 mg daily increasing to 800 mg daily for 2 weeks) [month]","PSA at completion of 2 week period (primary prostate cancer [7]; oral, 400 mg daily increasing to 800 mg daily for 2 weeks, chemical castration therapy, PSA at start 3.4)",sensitivity of colo-rectal cancer cell lines [8]
"Oc1ccc(C2COc3cc(O)ccc3C2c2ccc(O)cc2)cc1 (centres unmarked) [ME-143, 4,4′-(7-hydroxychroman-3,4-diyl)diphenol]",failed to show any clinical benefit,–,–,–,–,–,–,–,–,–,–,–,–,–,–,–,–
"Oc1ccc(C2=Cc3ccc(O)cc3OC2)cc1 [idronoxil, 2H-1-Benzopyran-7-0,1,3-(4-hydroxyphenyl)]",–,completely conjugated,about 10 ×,not being particularly susceptible to Phase 1 metabolic processes,continual growth of tumour during the treatment period,9.6,lack of any clinical benefit,10,inhibitory effect on tumour growth,effectively stopped tumour growth,10,67,6,failed to reduce tumour doubling time,1,6.7,insensitivity
